Measurements taken from article PMC6299220 (mBio, 2018).
Values after ≈ are worked out from the molar mass of the structure shown. Values joined by “and” are separate entries in the source; they are usually repeats but may differ in a detail not shown here. Equal entries are not always repeated. Where two headings read alike, the source gives them in different places.

What was measured:
[1] = mouse, microsomes
in vitro [2] = assay type: cell-based; settings: mouse
Description: (§1) Supplement mbo006184230st8.docx, table 1: Table S3. Profile of DG167 | column: value

in vitro [3] = settings: mouse, microsomes
in vitro [4] = assay type: in vitro ADME; settings: for fraction unbound: plasma
Description: as §1

M. marinum = assay: MIC, MABA; assay type: cell-based; settings: Mycobacterium marinum; M. marinum ATCC wild type
CYP1A2 = CYP1A2 (Homo sapiens, UniProt P05177); assay: biochemical; assay type: in vitro ADME
Sequence of CYP1A2 (P05177 whole entry): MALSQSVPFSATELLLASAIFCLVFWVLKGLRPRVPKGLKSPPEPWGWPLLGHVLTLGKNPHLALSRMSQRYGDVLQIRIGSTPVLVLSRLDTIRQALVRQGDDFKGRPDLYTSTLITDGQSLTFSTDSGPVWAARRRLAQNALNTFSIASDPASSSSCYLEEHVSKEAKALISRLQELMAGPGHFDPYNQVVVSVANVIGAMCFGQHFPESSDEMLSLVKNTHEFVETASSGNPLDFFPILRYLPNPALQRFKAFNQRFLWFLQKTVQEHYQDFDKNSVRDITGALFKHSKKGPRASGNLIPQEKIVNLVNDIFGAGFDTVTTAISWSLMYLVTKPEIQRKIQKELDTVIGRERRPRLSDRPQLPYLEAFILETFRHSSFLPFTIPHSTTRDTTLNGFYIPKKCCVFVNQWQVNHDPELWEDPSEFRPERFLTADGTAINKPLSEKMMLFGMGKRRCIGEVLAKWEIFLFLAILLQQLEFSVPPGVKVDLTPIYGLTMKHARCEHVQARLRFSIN
Description: as §1

CYP2C9 = CYP2C9 (Homo sapiens, UniProt P11712); assay: biochemical; assay type: in vitro ADME
Sequence of CYP2C9 (P11712 whole entry): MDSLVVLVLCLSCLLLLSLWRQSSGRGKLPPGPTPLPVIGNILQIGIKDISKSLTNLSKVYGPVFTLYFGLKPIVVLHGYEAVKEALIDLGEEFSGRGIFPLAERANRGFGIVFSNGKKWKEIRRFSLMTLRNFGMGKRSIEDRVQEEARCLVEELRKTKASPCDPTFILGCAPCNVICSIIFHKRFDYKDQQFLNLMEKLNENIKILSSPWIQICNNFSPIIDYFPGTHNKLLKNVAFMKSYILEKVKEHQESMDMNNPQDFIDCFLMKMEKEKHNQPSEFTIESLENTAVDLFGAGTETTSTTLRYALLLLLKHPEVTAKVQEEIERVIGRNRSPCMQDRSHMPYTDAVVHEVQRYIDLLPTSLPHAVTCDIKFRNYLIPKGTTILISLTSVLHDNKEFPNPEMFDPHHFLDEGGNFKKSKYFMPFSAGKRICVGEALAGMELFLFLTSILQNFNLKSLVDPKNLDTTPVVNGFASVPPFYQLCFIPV
Description: as §1

CYP3A4 = CYP3A4 (Homo sapiens, UniProt P08684); assay: biochemical; assay type: in vitro ADME
Sequence of CYP3A4 (P08684 whole entry): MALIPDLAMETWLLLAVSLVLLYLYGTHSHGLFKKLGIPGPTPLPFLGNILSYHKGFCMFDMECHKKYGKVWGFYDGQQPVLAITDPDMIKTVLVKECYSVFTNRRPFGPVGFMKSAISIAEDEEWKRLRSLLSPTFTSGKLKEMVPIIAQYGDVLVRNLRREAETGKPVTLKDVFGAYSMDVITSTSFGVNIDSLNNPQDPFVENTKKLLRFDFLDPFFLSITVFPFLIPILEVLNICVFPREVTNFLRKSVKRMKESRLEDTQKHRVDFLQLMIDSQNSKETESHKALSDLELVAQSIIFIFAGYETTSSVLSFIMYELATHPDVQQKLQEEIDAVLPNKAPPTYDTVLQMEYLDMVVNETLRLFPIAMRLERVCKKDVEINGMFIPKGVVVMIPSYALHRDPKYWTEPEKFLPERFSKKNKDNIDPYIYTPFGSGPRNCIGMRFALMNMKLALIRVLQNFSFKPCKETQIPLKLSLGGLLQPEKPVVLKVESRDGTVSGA
Description: as §1

CYP2D6 = CYP2D6 (Homo sapiens, UniProt P10635); assay: biochemical; assay type: in vitro ADME
Sequence of CYP2D6 (P10635 whole entry): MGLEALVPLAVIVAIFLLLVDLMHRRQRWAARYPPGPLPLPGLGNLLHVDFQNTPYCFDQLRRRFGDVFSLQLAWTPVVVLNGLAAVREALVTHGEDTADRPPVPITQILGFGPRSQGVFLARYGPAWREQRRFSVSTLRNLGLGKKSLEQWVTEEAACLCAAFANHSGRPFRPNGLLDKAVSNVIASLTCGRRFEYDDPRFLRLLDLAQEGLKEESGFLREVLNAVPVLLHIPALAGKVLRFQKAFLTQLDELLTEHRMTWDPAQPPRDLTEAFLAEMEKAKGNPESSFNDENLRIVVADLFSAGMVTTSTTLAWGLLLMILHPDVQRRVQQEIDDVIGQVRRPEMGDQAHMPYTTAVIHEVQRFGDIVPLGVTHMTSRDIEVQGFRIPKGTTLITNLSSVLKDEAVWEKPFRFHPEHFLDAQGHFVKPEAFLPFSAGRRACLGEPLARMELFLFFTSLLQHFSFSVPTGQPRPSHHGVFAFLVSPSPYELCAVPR
Description: as §1

M. abscessus = assay: MIC, MABA; assay type: cell-based; settings: Mycobacteroides abscessus; M. abscessus ATCC wild type
M. avium = assay: MIC, MABA; assay type: cell-based; settings: Mycobacterium avium; M. avium ATCC wild type
hERG = hERG (Homo sapiens, UniProt Q12809); assay: hERG inhibition
Sequence of hERG (Q12809 whole entry): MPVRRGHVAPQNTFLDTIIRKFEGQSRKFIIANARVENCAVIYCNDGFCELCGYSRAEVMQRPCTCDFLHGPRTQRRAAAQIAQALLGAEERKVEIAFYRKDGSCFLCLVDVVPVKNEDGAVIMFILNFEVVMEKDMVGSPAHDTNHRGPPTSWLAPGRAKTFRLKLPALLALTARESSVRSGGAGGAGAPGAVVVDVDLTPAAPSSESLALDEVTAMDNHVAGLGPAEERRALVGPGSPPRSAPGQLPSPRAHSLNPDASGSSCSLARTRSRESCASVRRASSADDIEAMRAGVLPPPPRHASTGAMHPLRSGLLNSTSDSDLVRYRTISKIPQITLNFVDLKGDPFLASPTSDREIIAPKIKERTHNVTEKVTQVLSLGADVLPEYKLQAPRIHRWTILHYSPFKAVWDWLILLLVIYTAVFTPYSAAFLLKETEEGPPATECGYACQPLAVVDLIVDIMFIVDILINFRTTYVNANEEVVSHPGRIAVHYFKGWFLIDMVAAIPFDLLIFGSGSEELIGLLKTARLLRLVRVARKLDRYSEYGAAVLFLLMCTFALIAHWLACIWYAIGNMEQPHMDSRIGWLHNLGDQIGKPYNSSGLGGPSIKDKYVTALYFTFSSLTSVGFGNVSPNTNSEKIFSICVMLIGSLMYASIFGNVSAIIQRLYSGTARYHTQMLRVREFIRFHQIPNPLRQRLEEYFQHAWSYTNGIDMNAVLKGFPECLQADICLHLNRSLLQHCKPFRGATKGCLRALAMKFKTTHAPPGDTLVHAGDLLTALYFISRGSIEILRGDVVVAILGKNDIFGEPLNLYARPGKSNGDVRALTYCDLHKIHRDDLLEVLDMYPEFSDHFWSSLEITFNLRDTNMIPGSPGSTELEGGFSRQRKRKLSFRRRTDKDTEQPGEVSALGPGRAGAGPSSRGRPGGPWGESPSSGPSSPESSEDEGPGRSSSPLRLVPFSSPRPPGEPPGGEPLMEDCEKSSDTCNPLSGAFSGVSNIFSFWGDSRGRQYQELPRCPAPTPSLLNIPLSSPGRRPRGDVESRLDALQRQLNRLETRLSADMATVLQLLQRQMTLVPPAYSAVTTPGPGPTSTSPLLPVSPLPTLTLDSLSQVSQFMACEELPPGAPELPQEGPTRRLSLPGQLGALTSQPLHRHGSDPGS

in vivo = settings: female, BALB/c
Method: All animal experiments were approved by the Institutional Animal Care and Use Committee of the New Jersey Medical School, Rutgers University, and were conducted in compliance with their guidelines. […] Sequential bleeds were collected at 0.25, 0.5, 1, 3, 5, and 8 h postdose via the tail snip method. Blood (50 µl) was collected in capillary microvette EDTA blood tubes and kept on ice prior to centrifugation at 1,500 × g for 5 min. The supernatant (plasma) was transferred into a 96-well plate and stored at −80°C.
Chromatography was performed with an Agilent Zorbax SB-C8 column (2.1 by 30 mm; particle size, 3.5 µm) using a reverse-phase gradient elution. A mixture of 0.1% formic acid–Milli-Q deionized water was used for the aqueous mobile phase and 0.1% formic acid–acetonitrile (ACN) for the organic mobile phase. […] Extracts were subjected to vortex mixing for 5 min and centrifuged at 4,000 rpm for 5 min. The supernatants were analyzed by LC-MS. Verapamil IS was sourced from Sigma-Aldrich.

physchem = settings: pH 7.4, aqueous buffer, kinetic from dmso stock
[5] = assay type: in vitro ADME
Description: as §1

M. fortuitum = assay: MIC, MABA; assay type: cell-based; settings: Mycolicibacterium fortuitum; M. fortuitum ATCC wild type
[6] = tested on: M. tuberculosis H37Rv gene expression; assay type: cell-based, Mycobacterium tuberculosis
CYP2C19 = CYP2C19 (Homo sapiens, UniProt P33261); assay: Cytochrome P450 inhibition; assay type: in vitro ADME; settings: read-out: Cytochrome P450 IC50, 2C19
Sequence of CYP2C19 (P33261 whole entry, species assumed): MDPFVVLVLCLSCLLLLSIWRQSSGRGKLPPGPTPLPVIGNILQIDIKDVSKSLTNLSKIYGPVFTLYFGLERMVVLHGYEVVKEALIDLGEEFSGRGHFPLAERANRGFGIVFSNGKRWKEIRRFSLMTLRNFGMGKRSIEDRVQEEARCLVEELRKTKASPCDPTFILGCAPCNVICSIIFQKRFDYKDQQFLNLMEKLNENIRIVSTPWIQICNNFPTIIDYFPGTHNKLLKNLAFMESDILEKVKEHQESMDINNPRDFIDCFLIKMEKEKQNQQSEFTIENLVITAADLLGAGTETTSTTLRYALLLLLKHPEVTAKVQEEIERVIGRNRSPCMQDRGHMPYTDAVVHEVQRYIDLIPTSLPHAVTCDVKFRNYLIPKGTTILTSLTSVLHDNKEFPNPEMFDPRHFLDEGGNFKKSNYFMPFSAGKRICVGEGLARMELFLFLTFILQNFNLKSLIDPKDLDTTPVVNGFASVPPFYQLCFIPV

[7] = tested on: mycolic acid biosynthesis in M. tuberculosis H37Rv; assay type: cell-based, Mycobacterium tuberculosis
M. smegmatis = assay: MIC, MABA; assay type: cell-based; settings: Mycolicibacterium smegmatis; M. smegmatis wild-type
[8] = tested on: M. tuberculosis 100-day-old bacilli (persisters); assay type: cell-based, Mycobacterium tuberculosis
in vitro [9] = settings: African green monkey
in vitro [10] = settings: human
[11] = Chemical stability at pH 2, 7, 9; assay type: physicochemical; settings: for half-life: buffer, read-out: Chemical stability t1/2
Description: as §1

[12] = tested on: iniBAC promoter (PiniBAC); assay type: cell-based, M. bovis BCG
KasA = KasA (Mycobacterium tuberculosis, UniProt P9WQD9); assay: Microscale thermophoresis (MST) binding assay; settings: 49.5 nM labeled KasA
Sequence of KasA (P9WQD9 whole entry): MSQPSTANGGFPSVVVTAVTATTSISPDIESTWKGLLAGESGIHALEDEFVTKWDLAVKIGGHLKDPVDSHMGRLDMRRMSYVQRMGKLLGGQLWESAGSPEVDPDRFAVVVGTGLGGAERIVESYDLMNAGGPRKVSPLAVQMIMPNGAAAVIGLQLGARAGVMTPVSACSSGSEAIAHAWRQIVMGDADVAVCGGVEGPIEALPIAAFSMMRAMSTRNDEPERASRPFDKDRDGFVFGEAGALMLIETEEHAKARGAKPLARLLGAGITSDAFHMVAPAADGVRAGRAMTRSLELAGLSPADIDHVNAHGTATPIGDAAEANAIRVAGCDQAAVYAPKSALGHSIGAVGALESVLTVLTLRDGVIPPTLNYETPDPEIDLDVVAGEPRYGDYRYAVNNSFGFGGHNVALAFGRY

In the case of `CCCCS(=O)(=O)Nc1ccc2cnn(C)c2c1` [DG167, N-(1-Methyl-1H-indazol-6-yl)butane-1-sulfonamide], the “tolerability, dose escalation” value (mice, 50 and 100 mg/kg, monitored for 8 h) is reported as “well tolerated”, the “dose tolerability for 5 days” value (mice, 5 days, DG167 50 and 100 mg/kg, combination DG167 100 mg/kg with INH 25 mg/kg) is reported as “did not show any behavioral changes or weight loss” and the “tolerability, dose escalation” value (mouse, in vivo) is reported as “heavy breathing, hunched posture, and decreased activity”. For the same compound, the MLM stability clint [1] was 68.9 μl/mi/mg protein, the MLM-generated metabolites [1] was “A demethylated species, corresponding to loss of the 1-methyl group (Fig. S5A), predominated among the metabolites” and the CC50 (in vitro [2]) was 94 µM. For the same compound, the half-life (in vitro [3]) was 0.168 h, the microsomal CLint (in vitro [3]) was 68.9 µL/min/mg and the half-life (in vitro [3]; MLM stability t1/2 without NADPH, without NADPH) was over 5 h. The recovery (in vitro [4]; human) was 92%, the fraction unbound (in vitro [4]; human) was 0.081 and the recovery (in vitro [4]; mouse) was 90.7%. It also gave a fraction unbound (in vitro [4]; mouse) of 0.21, an MIC (M. marinum) of over 50 µM and an IC50 (CYP1A2) of over 50 µM. For the same compound, the IC50 (CYP2C9) was over 50 µM, the IC50 (CYP3A4) was over 50 µM and the IC50 (CYP2D6) was over 50 µM. The MIC (M. abscessus) was over 50 µM, the MIC (M. avium) was over 50 µM and the IC50 (hERG) was over 20 µM. It also gave an AUC(0-t) (in vivo; mouse, in vivo, iv, 5 mg/kg) of 1750 ng·h/mL, a half-life (in vivo; mouse, in vivo, iv, 5 mg/kg) of 0.33 h and an AUC(0-t) (in vivo; mouse, in vivo, po, 25 mg/kg) of 8080 ng·h/mL. The bioavailability (in vivo; plasma, po, 25 mg/kg) was 92.3%, the solubility kinetic (physchem) was 324 µM (≈ 86.6 µg/mL) and the “Human plasma stability at 5 h” value [5] was 109%. For the same compound, the “Mouse plasma stability @ 5 h” value [5] was 99.1%, the MIC (M. fortuitum) was over 50 µM and the “expression of the kasA, kasB, and acpM genes and the iniBAC operon” value [6] was “strongly induced expression”. The IC50 (CYP2C19) was 12 µM and 12.4 µM, the “inhibition of mycolic acid biosynthesis” value [7] was “dose-dependent inhibition” and the MIC (M. smegmatis) was over 50 µM. The “killing of persister cultures” value [8] was “minimal killing”, the CC50 (in vitro [9]) was 23 µM and the Papp (in vitro [10]; Caco-2, Caco-2 Permeability PA-B) was 71.8 ×10⁻⁶ cm/s. For the same compound, the Papp (in vitro [10]; Caco-2, Caco-2 Permeability PB-A) was 45.6 ×10⁻⁶ cm/s, the half-life ([11]; pH 2) was 192 h and the half-life ([11]; pH 9) was 57.8 h. The “Chemical stability t1/2” value ([11]; pH 7) was “Stable”, the “induction of iniBAC promoter” value [12] was “approximately 12 fold” and the EC50 (KasA) was 0.131 ± 0.0182 µM.
